Tests used:
Assay type in all cases: cell-based
MDA-MB-231 = assay: Cell growth inhibition assay, breast cancer cell line MDA-MB-231; settings: Homo sapiens; MDA-MB-231 breast cancer cell line, 5,000 cells/well
Method: The inhibitory effects of the compounds of the present invention against the growth of cancer cells were evaluated as shown below. The cancer cell lines including stomach cancer cell line (AGS), breast cancer cell lines (MDA-MB-231, MDA-MB-468, and BT-549), prostate cancer cell lines (LNCaP and DU-145), colon cancer cell line (HCT116), ovarian cancer cell line (SW626), liver cancer cell line (Hep3B), kidney cancer cell line (ACHN), lung cancer cell line (NCI-H23) and blood cancer cell lines (HEL92.1.7 and U266) were cultured under the protocol provided by each supplier. A medium supplemented with 10 ng/mL of IL-6 was used for LNCaP, a prostate cancer cell line, when treated with a drug. Each type of cells to be used in experiments were sub-cultured in a 96-well plate by counting the exact number of cells using Tali™ Image-based Cytometer (Life Technologies). In a 96-well plate, AGS, HCT116, and DU-145 were employed with 3,000 cells/well; NCI-H23, SW626, Hep3B, ACHN, BT-549, MDA-MB-231, HEL92.1.7, and U266 were employed with 5,000 cells/well; and LNCaP and MDA-MB-468 were employed with 10,000 cells/well. The cells were treated with the compounds listed in Examples which were diluted in various concentrations. Upon completion of the compounds treatment, AGS, HCT116, SW626, DU145, NCI-H23, Hep3B, ACHN, BT-549, LNCaP, HEL92.1.7, and U266 cells were cultured at 37° C. under 5% CO2 for from 72 to 96 hours, and MDA-MB-231 and MDA-MB-468 cells were cultured at 37° C. in air for from 72 to 96 hours. Subsequently, the cells were observed under microscope and drug precipitation and particular findings were investigated and recorded. And then, the 96-well plate was placed at room temperature for 30 minutes, added with 20 μL/well of CellTiter-Glo solution (Cat No. G7573, Promega) and shaken for 10 minutes, followed by being subjected to the measurement using PHERAstar™ microplate reader (BMG LABTECH) according to the supplier's general luminometer protocol. Wells where only culture liquid added without cell plating were used as a negative control, whereas wells where culture liquid containing 0.1% DMSO instead of the compounds listed in Examples were used as a positive control.

LNCaP = assay: Cell growth inhibition assay, prostate cancer cell line LNCaP (medium with 10 ng/mL IL-6); settings: Homo sapiens, medium supplemented with 10 ng/mL of IL-6, 10,000 cells/well
STAT3 = target: T1, STAT3 (Homo sapiens, UniProt P40763); assay: STAT3 reporter gene assay (luciferase), LNCaP stable cell line (pSTAT3-TA-luc), IL-6 stimulation
T1 construct: plasmid pSTAT3-TA-luc), which contains a stably operating STAT3 promoter; endogenous in cells
T1 sequence (P40763 whole entry): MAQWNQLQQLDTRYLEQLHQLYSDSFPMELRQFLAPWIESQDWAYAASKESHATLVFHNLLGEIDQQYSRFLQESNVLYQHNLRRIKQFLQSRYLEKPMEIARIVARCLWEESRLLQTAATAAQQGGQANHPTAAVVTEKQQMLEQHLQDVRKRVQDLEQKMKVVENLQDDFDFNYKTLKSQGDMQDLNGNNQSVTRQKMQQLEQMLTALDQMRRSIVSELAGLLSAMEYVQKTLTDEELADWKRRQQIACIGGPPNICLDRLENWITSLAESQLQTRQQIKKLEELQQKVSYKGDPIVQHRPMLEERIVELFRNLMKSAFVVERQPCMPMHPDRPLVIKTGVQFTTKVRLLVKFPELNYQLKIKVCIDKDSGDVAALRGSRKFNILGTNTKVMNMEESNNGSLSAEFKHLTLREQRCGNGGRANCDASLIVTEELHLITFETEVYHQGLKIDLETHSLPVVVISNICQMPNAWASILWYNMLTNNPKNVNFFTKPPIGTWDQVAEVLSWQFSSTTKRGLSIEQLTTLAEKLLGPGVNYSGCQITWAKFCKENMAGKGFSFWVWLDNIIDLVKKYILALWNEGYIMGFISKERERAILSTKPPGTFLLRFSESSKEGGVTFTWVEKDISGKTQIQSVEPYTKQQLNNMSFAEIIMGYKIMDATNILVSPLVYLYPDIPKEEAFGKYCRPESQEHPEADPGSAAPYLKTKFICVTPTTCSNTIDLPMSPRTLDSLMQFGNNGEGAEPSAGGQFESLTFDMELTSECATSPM
Method in brief: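 Cytotoxicity was run on a duplicate plate with CellTiter-Glo, while the other plate gave luciferase read-outs from lysed LNCaP pSTAT3-TA-luc reporter cells. Cells were treated with graded compound concentrations plus IL-6 (10 ng/mL final) for 24–48 h in 3% DCC-FBS medium. Unstimulated and stimulated wells served as negative and positive controls.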

Row | IC50 (MDA-MB-231) [µM] | IC50 (LNCaP) [µM] | IC50 (STAT3) [µM] | Compound
1 | 0.033 | 0.67 | 0.08 | CC(C)(c1cccc(NC(=O)c2cc3cc(NS(C)(=O)=O)ccc3s2)c1)c1ccc(F)cc1F [Example 27, N-(3-(2-(2,4-difluorophenyl)propan-2-yl)phenyl)-5-(methylsulfonamido)benzo[b]thiophene-2-carboxamide]
2 | 1 | 4.7 | 0.61 | CC(C)(c1ccc(F)cc1)c1cccc(NC(=O)c2cc3cc(NS(C)(=O)=O)ccc3o2)c1 [Example 28, N-(3-(2-(4-fluorophenyl)propan-2-yl)phenyl)-5-(methylsulfonamido)benzofuran-2-carboxamide]
3 | 0.47 | 3.8 | 0.53 | CC(C)(c1cccc(NC(=O)c2cc3cc(NS(C)(=O)=O)ccc3o2)c1)c1ccc(F)cc1F [Example 29, N-(3-(2-(2,4-difluorophenyl)propan-2-yl)phenyl)-5-(methylsulfonamido)benzofuran-2-carboxamide]
4 | 0.37 | 2.9 | 0.43 | CC(C)(c1ccc(F)cc1)c1cccc(NC(=O)c2cc3ccc(NS(C)(=O)=O)cc3s2)c1 [Example 30, N-(3-(2-(4-fluorophenyl)propan-2-yl)phenyl)-6-(methylsulfonamido)benzo[b]thiophene-2-carboxamide]
5 | 0.026 | 0.49 | 0.19 | CC(C)(c1cccc(NC(=O)c2cc3cc(NS(C)(=O)=O)ccc3s2)c1)c1ccccc1F [Example 31, N-(3-(2-(2-fluorophenyl)propan-2-yl)phenyl)-5-(methylsulfonamido)benzo[b]thiophene-2-carboxamide]
6 | 0.016 | 0.39 | 0.046 | CC(C)(c1cccc(NC(=O)c2cc3cc(NS(C)(=O)=O)ccc3s2)c1)c1cccc(OC(F)(F)F)c1 [Example 37, 5-(methylsulfonamido)-N-(3-(2-(3-(trifluoromethoxy)phenyl)propan-2-yl)phenyl)benzo[b]thiophene-2-carboxamide]
7 | 0.049 | 0.8 | 0.1 | COc1cccc(C(C)(C)c2cccc(NC(=O)c3cc4cc(NS(C)(=O)=O)ccc4s3)c2)c1 [Example 38, N-(3-(2-(3-methoxyphenyl)propan-2-yl)phenyl)-5-(methylsulfonamido)benzo[b]thiophene-2-carboxamide]
8 | 0.05 | 0.22 | 0.048 | CC(C)(c1ccc(F)cc1)c1cc(NC(=O)c2cc3cc(NS(C)(=O)=O)ccc3s2)cc(OC(F)F)c1 [Example 39, N-(3-(difluoromethoxy)-5-(2-(4-fluorophenyl)propan-2-yl)phenyl)-5-(methylsulfonamido)benzo[b]thiophene-2-carboxamide]
9 | 0.006 | 0.37 | 0.076 | CC(C)(c1ccc(F)cc1)c1cc(Cl)cc(NC(=O)c2cc3cc(NS(C)(=O)=O)ccc3s2)c1 [Example 40, N-(3-chloro-5-(2-(4-fluorophenyl)propan-2-yl)phenyl)-5-(methylsulfonamido)benzo[b]thiophene-2-carboxamide]
10 | 0.024 | 0.11 | 0.028 | COc1cc(OC(F)(F)F)cc(C(C)(C)c2cc(NC(=O)c3cc4cc(NS(C)(=O)=O)ccc4s3)cc(OC(F)F)c2)c1 [Example 41, N-(3-(difluoromethoxy)-5-(2-(3-methoxy-5-(trifluoromethoxy)phenyl)propan-2-yl)phenyl)-5-(methylsulfonamido)benzo[b]thiophene-2-carboxamide]
11 | 4 | 5.2 | 1.4 | CC(C)(c1cc(Br)cc(NC(=O)c2cc3cc(NS(C)(=O)=O)ccc3s2)c1)c1cc(OCC(N)=O)ccc1F [Example 44, N-(3-(2-(5-(2-amino-2-oxoethoxy)-2-fluorophenyl)propan-2-yl)-5-bromophenyl)-5-(methylsulfonamido)benzo[b]thiophene-2-carboxamide]
12 | 0.38 | 4.4 | 1.3 | CC(C)(Oc1cccc(C(C)(C)c2cc(Br)cc(NC(=O)c3cc4cc(NS(C)(=O)=O)ccc4s3)c2)c1)C(N)=O [Example 45, N-(3-(2-(3-((1-amino-2-methyl-1-oxopropan-2-yl)oxy)phenyl)propan-2-yl)-5-bromophenyl)-5-(methylsulfonamido)benzo[b]thiophene-2-carboxamide]

The remaining lines, values behind:

Row | Compound | IC50 (MDA-MB-231) [µM] | IC50 (LNCaP) [µM] | IC50 (STAT3) [µM]
13 | COc1cc(OC(F)(F)F)cc(C(C)c2cccc(NC(=O)c3cc4ccc(NS(C)(=O)=O)cc4[nH]3)c2)c1 (stereo not drawn) [Example 10, N-(3-(1-(3-methoxy-5-(trifluoromethoxy)phenyl)ethyl)phenyl)-6-(methylsulfonamido)-1H-indole-2-carboxamide] | 0.18 | 1.7 | 0.43
14 | CC(C)(c1cccc(NC(=O)c2cc3ccc(NS(C)(=O)=O)cc3[nH]2)c1)c1ccc(F)cc1F [Example 11, N-(3-(2-(2,4-difluorophenyl)propan-2-yl)phenyl)-6-(methylsulfonamido)-1H-indole-2-carboxamide] | 0.06 | 1.8 | 0.2
15 | COc1cccc(C(C)(C)c2cccc(NC(=O)c3cc4ccc(NS(C)(=O)=O)cc4[nH]3)c2)c1 [Example 12, N-(3-(2-(3-methoxyphenyl)propan-2-yl)phenyl)-6-(methylsulfonamido)-1H-indole-2-carboxamide] | 0.034 | 1.4 | 0.26
16 | COc1cc(NC(=O)c2cc3ccc(NS(C)(=O)=O)cc3[nH]2)cc(C(C)(C)c2cc(OC)cc(OC(F)(F)F)c2)c1 [Example 13, N-(3-methoxy-5-(2-(3-methoxy-5-(trifluoromethoxy)phenyl)propan-2-yl)phenyl)-6-(methylsulfonamido)-1H-indole-2-carboxamide] | 0.03 | 0.48 | 0.22
17 | CC(C)(c1ccc(F)cc1)c1cc(Br)cc(NC(=O)c2cc3ccc(NS(C)(=O)=O)cc3[nH]2)c1 [Example 14, N-(3-bromo-5-(2-(4-fluorophenyl)propan-2-yl)phenyl)-6-(methylsulfonamido)-1H-indole-2-carboxamide] | 0.062 | 0.55 | 0.13
18 | CC(C)(c1ccc(F)cc1)c1cc(NC(=O)c2cc3ccc(NS(C)(=O)=O)cc3[nH]2)cc(OC(F)F)c1 [Example 17, N-(3-(difluoromethoxy)-5-(2-(4-fluorophenyl)propan-2-yl)phenyl)-6-(methylsulfonamido)-1H-indole-2-carboxamide] | 0.19 | 0.92 | 0.14
19 | CC(C)(c1cc(Br)cc(NC(=O)c2cc3ccc(NS(C)(=O)=O)cc3[nH]2)c1)c1cccc(OCC(N)=O)c1 [Example 18, N-(3-(2-(3-(2-amino-2-oxoethoxy)phenyl)propan-2-yl)-5-bromophenyl)-6-(methylsulfonamido)-1H-indole-2-carboxamide] | 8.7 | 9.6 | 5.4
20 | CC(C)(c1cc(Br)cc(NC(=O)c2cc3ccc(NS(C)(=O)=O)cc3[nH]2)c1)c1cccc(OC(F)F)c1 [Example 20, N-(3-bromo-5-(2-(3-(difluoromethoxy)phenyl)propan-2-yl)phenyl)-6-(methylsulfonamido)-1H-indole-2-carboxamide] | 0.15 | 1.1 | 0.29
21 | CC(C)(c1cc(Br)cc(NC(=O)c2cc3ccc(NS(C)(=O)=O)cc3[nH]2)c1)c1cc(OC(F)(F)F)ccc1F [Example 23, N-(3-bromo-5-(2-(2-fluoro-5-(trifluoromethoxy)phenyl)propan-2-yl)phenyl)-6-(methylsulfonamido)-1H-indole-2-carboxamide] | 0.028 | 0.17 | 0.045
22 | CC(C)(c1ccc(F)cc1)c1cccc(NC(=O)c2cc3cc(OC(F)(F)F)ccc3[nH]2)c1 [Example 25, N-(3-(2-(4-fluorophenyl)propan-2-yl)phenyl)-5-(trifluoromethoxy)-1H-indole-2-carboxamide] | 3.2 | 4.2 | 3.3
23 | CC(C)(c1ccc(F)cc1)c1cccc(NC(=O)c2cc3cc(NS(C)(=O)=O)ccc3s2)c1 [Example 26, N-(3-(2-(4-fluorophenyl)propan-2-yl)phenyl)-5-(methylsulfonamido)benzo[b]thiophene-2-carboxamide] | 0.008 | 0.36 | 0.059
